According to ChEMBL document CHEMBL5390251, “Pyrazolidinone-based peptidomimetic SARS-CoV-2 Mpro inhibitors” (Bioorg Med Chem Lett, 2023):
Calls of active or inactive are those of the source. The rule behind the calls is not given here.

Key:
[1] = molecular target: Replicase polyprotein 1ab (Severe acute respiratory syndrome coronavirus 2) (UniProt P0DTD1); experiment: Inhibition of SARS-Cov-2 Main protease at <=500 uM by FRET assay
[2] = molecular target: Replicase polyprotein 1ab (Severe acute respiratory syndrome coronavirus 2, UniProt P0DTD1); experiment: Inhibition of SARS-Cov-2 Main protease by FRET assay
[3] = molecular target: T1, Cathepsin K (Homo sapiens, UniProt P43235); experiment: Inhibition of human Cathepsin K
T1 sequence (P43235 whole entry): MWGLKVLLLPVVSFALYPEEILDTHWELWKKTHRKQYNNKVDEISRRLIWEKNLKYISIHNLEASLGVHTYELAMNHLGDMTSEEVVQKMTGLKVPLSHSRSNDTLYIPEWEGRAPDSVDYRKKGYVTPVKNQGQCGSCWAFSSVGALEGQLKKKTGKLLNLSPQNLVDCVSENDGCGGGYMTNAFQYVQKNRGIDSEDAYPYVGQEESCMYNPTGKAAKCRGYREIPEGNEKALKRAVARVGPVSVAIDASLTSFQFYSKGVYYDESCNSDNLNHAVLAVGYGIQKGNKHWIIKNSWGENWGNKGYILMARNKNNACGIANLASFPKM

[4] = molecular target: Replicase polyprotein 1ab (Severe acute respiratory syndrome coronavirus 2) (UniProt P0DTD1); experiment: Uncompetitive inhibition of SARS-Cov-2 Main protease by Lineweaver-Burk plot analysis

Structure (SMILES): CC1(C)[C@H](C(=O)O)N2C(=O)C[C@H]2S1(=O)=O
- inhibition [1]: inactive

Structure (SMILES): O=C(N[C@@H](Cc1ccccc1)C(=O)O)c1cc2ccccc2[nH]1
- IC50 [2]: > 500 µM

Structure (SMILES): O=C(O)C1=C(C(=O)N(Cc2ccccc2)Cc2ccccc2)CN2C[C@H](NC(=O)[C@H](Cc3ccccc3)NC(=O)c3cc4ccccc4[nH]3)C(=O)N12
- IC50 [2]: 45 µM
- IC50 [3]: 64 µM
- inhibition [4]: Active

Structure (SMILES): N[C@H]1CN2CC(C(=O)N(Cc3ccccc3)Cc3ccccc3)=C(C(=O)O)N2C1=O
- IC50 [2]: > 500 µM
- inhibition [1]: inactive

Structure (SMILES): CCC1C(=O)N(S(C)(=O)=O)CC1C(=O)OC (racemic; 10)
- inhibition [1]: inactive

Structure (SMILES): CC1(C)S[C@@H]2[C@H](NC(=O)[C@H](Cc3ccccc3)NC(=O)c3cc4ccccc4[nH]3)C(=O)N2[C@H]1C(=O)O
- IC50 [2]: 134 µM

Structure (SMILES): O=C(N[C@@H](Cc1ccccc1)C(=O)N[C@@H]1CONC1=O)c1cc2ccccc2[nH]1
- IC50 [2]: > 500 µM

Structure (SMILES): C=CCOC(=O)C1=C(C(=O)O)N2C(=O)[C@@H](NC(=O)[C@H](Cc3ccccc3)NC(=O)c3cc4ccccc4[nH]3)CN2C1
- IC50 [2]: 192 µM

Structure (SMILES): O=C(O)C1=C(C(=O)NCc2ccccc2)CN2C[C@H](NC(=O)[C@H](Cc3ccccc3)NC(=O)c3cc4ccccc4[nH]3)C(=O)N12
- IC50 [2]: 178 µM

Structure (SMILES): C[C@H]1[C@H](NC(=O)[C@H](Cc2ccccc2)NC(=O)c2cc3ccccc3[nH]2)C(=O)N1S(=O)(=O)O
- IC50 [2]: > 500 µM

Structure (SMILES): O=C(O)C1=C(C(=O)NCc2ccncc2)CN2C[C@H](NC(=O)[C@H](Cc3ccccc3)NC(=O)c3cc4ccccc4[nH]3)C(=O)N12
- IC50 [2]: 201 µM

Structure (SMILES): O=C(O)C1=C(C(=O)N2CCCC2)CN2C[C@H](NC(=O)[C@H](Cc3ccccc3)NC(=O)c3cc4ccccc4[nH]3)C(=O)N12
- IC50 [2]: 181 µM

Structure (SMILES): NC(=O)[C@@H]1CC[C@@H]2CN1C(=O)N2OS(=O)(=O)O
- inhibition [1]: inactive

Structure (SMILES): C[C@@H](O)[C@H]1C(=O)N2C(C(=O)O)=C(SCCNC=N)C[C@H]12
- inhibition [1]: inactive

Structure (SMILES): CC1(C)S[C@@H]2[C@H](N)C(=O)N2[C@H]1C(=O)O
- inhibition [1]: inactive

Structure (SMILES): C[C@H]1[C@H](N)C(=O)N1S(=O)(=O)O
- inhibition [1]: inactive

Structure (SMILES): C[C@@H](O)[C@H]1C(=O)N2C(C(=O)O)=C([C@H]3CCCO3)S[C@H]12
- inhibition [1]: inactive

Structure (SMILES): CCN(CC)C(=O)C1=C(C(=O)O)N2C(=O)[C@@H](NC(=O)[C@H](Cc3ccccc3)NC(=O)c3cc4ccccc4[nH]3)CN2C1
- IC50 [2]: 279 µM

Structure (SMILES): CN(Cc1ccccc1)C(=O)C1=C(C(=O)O)N2C(=O)[C@@H](NC(=O)[C@H](Cc3ccccc3)NC(=O)c3cc4ccccc4[nH]3)CN2C1
- IC50 [2]: > 500 µM

Structure (SMILES): O=C(O)C1=C(Cl)CS[C@@H]2[C@H](NC(=O)[C@H](Cc3ccccc3)NC(=O)c3cc4ccccc4[nH]3)C(=O)N12
- IC50 [2]: 90 µM

Structure (SMILES): CCC1C(=O)N(S(C)(=O)=O)CC1C(=O)OC (racemic; 11)
- inhibition [1]: inactive

Structure (SMILES): N[C@@H]1C(=O)N2C(C(=O)O)=C(Cl)CS[C@H]12
- inhibition [1]: inactive

Structure (SMILES): O=C(O)C1=C(C(=O)N(Cc2ccccc2)Cc2ccccc2)CN2C[C@H](NC(=O)[C@H](C[C@@H]3CCNC3=O)NC(=O)[C@H](Cc3ccccc3)NC(=O)c3cc4ccccc4[nH]3)C(=O)N12
- IC50 [2]: 163 µM

Structure (SMILES): N[C@@H]1CONC1=O
- inhibition [1]: inactive
